Data taken from the supplement of paper PMC10627819.

Tests used:
S. aureus Newman [1] = experiment: fitness (endpoint OD595 vs no drug) (fraction); higher = more growth
In short: (§1)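 Fitness is computed from the optical density at which cultures reach stationary phase, divided by the robust mean of no-drug control wells. Any value above 1 is set to 1. Cultures started at OD595 0.01 in 384-well plates with TSB, LB Lennox or CY at 37 °C, and OD595 was read every 30 min for 14 h against a first-reading background.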

B. subtilis 168 [2] = experiment: as above
In short: as §1

S. pneumoniae D39V [3] = experiment: as above
In short: as §1

S. aureus Newman [4] = experiment: Bliss interaction score (quartile over a dose matrix) (fitness difference); higher = more antagonism (negative = synergy)
In short: (§2)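 Growth was read as OD595 when cultures entered stationary phase, and each value was divided by the plate's robust no-drug mean and capped at 1. This normalised ratio is the fitness value, and fitness for each single drug came from the combination data. The Bliss score subtracts the expected fitness, taken as the product, from the observed fitness and is given as quartiles across technical, biological and donor/recipient replicates.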

S. aureus DSM 20231 = experiment: as above
In short: as §2

B. subtilis 168 [5] = experiment: as above
In short: as §2

S. pneumoniae D39V [6] = experiment: as above
In short: as §2
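Wherever Bliss interaction score (quartile over a dose matrix) is given: first quartile when negative (synergy) and third quartile when positive (antagonism).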
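Wherever fitness (endpoint OD595 vs no drug) is given: OD595 on entry to stationary phase over no-drug wells; at most 1.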

CO/N=C(\C(=O)N[C@@H]1C(=O)N2C(C(=O)O)=C(COC(C)=O)CS[C@H]12)c1csc(N)n1 [Cefotaxime] + CN(C)c1cc(NC(=O)CNC(C)(C)C)c(O)c2c1C[C@H]1C[C@H]3[C@H](N(C)C)C(O)=C(C(N)=O)C(=O)[C@@]3(O)C(O)=C1C2=O [Tigecycline]
fitness, one replicate
Conditions | partner 0.039 µg/mL | partner 0.078 µg/mL | partner 0.125 µg/mL | partner 0.156 µg/mL | partner 0.25 µg/mL | partner 0.5 µg/mL
B. subtilis 168 [2], first compound 0.00775 µg/mL | 0.83 | 0.784 | – | 0.811 | – | –
B. subtilis 168 [2], first compound 0.0155 µg/mL | 0.696 | 0.677 | – | 0.621 | – | –
B. subtilis 168 [2], first compound 0.031 µg/mL | 0.476 | 0.528 | – | 0.589 | – | –
B. subtilis 168 [2], first compound 0.0625 µg/mL | – | – | 0.623 | – | 0.513 | 0.573
B. subtilis 168 [2], first compound 0.125 µg/mL | – | – | 0.457 | – | 0.4 | 0.406
B. subtilis 168 [2], first compound 0.25 µg/mL | – | – | 0.307 | – | 0.237 | 0.252
S. aureus Newman [1], first compound 0.039 µg/mL | 0.709 | 0.781 | – | 0.776 | – | –
S. aureus Newman [1], first compound 0.625 µg/mL | 0.0125 | 0.0197 | – | 0.0212 | – | –
S. aureus Newman [1], first compound 1.25 µg/mL | 0.0613 | 0.0298 | – | 0.023 | – | –
S. aureus Newman [1], first compound 2.5 µg/mL | 0.0425 | 0.0445 | – | 0.0375 | – | –

Conditions | fitness
B. subtilis 168 [2], first compound 0.5 µg/mL, partner 0.039 µg/mL | 0.231
B. subtilis 168 [2], first compound 0.5 µg/mL, partner 0.078 µg/mL | 0.198
B. subtilis 168 [2], first compound 0.5 µg/mL, partner 0.156 µg/mL | 0.234
B. subtilis 168 [2], first compound 1 µg/mL, partner 0.039 µg/mL | 0.0778
B. subtilis 168 [2], first compound 1 µg/mL, partner 0.078 µg/mL | 0.092
B. subtilis 168 [2], first compound 1 µg/mL, partner 0.156 µg/mL | 0.109
B. subtilis 168 [2], first compound 2 µg/mL, partner 0.039 µg/mL | 0.0602
B. subtilis 168 [2], first compound 2 µg/mL, partner 0.078 µg/mL | 0.0925
B. subtilis 168 [2], first compound 2 µg/mL, partner 0.156 µg/mL | 0.101
S. aureus Newman [1], first compound 0.078 µg/mL, partner 0.039 µg/mL | 0.706
S. aureus Newman [1], first compound 0.078 µg/mL, partner 0.078 µg/mL | 0.777
S. aureus Newman [1], first compound 0.078 µg/mL, partner 0.156 µg/mL | 0.767
S. aureus Newman [1], first compound 0.156 µg/mL, partner 0.039 µg/mL | 0.655
S. aureus Newman [1], first compound 0.156 µg/mL, partner 0.078 µg/mL | 0.701
S. aureus Newman [1], first compound 0.156 µg/mL, partner 0.156 µg/mL | 0.714
S. aureus Newman [1], first compound 0.312 µg/mL, partner 0.039 µg/mL | 0.427
S. aureus Newman [1], first compound 0.312 µg/mL, partner 0.078 µg/mL | 0.434
S. aureus Newman [1], first compound 0.312 µg/mL, partner 0.156 µg/mL | 0.422
S. pneumoniae D39V [3], first compound 0.0018 µg/mL, partner 0.325 µg/mL | 0.978
S. pneumoniae D39V [3], first compound 0.0018 µg/mL, partner 0.65 µg/mL | 0.936
S. pneumoniae D39V [3], first compound 0.0018 µg/mL, partner 1.3 µg/mL | 0.993
S. pneumoniae D39V [3], first compound 0.0018 µg/mL, partner 2.6 µg/mL | 0.92
S. pneumoniae D39V [3], first compound 0.0035 µg/mL, partner 0.325 µg/mL | 0.957
S. pneumoniae D39V [3], first compound 0.0035 µg/mL, partner 0.65 µg/mL | 0.903
S. pneumoniae D39V [3], first compound 0.0035 µg/mL, partner 1.3 µg/mL | 0.954
S. pneumoniae D39V [3], first compound 0.0035 µg/mL, partner 2.6 µg/mL | 0.88
S. pneumoniae D39V [3], first compound 0.007 µg/mL, partner 0.325 µg/mL | 0.918
S. pneumoniae D39V [3], first compound 0.007 µg/mL, partner 0.65 µg/mL | 0.849
S. pneumoniae D39V [3], first compound 0.007 µg/mL, partner 1.3 µg/mL | 0.896
S. pneumoniae D39V [3], first compound 0.007 µg/mL, partner 2.6 µg/mL | 0.774

Conditions | Bliss interaction score
B. subtilis 168 [5] | 0.0544
S. aureus DSM 20231 | 0.0485
S. aureus Newman [4] | -0.0426
S. pneumoniae D39V [6] | -0.0363

O=C(O)c1cn(C2CC2)c2cc(N3CCNCC3)c(F)cc2c1=O [Ciprofloxacin] + COc1cccc2c1C(=O)c1c(O)c3c(c(O)c1C2=O)C[C@@](O)(C(=O)CO)C[C@@H]3O[C@H]1C[C@H](N)[C@H](O)[C@H](C)O1 [Doxorubicin]
Conditions | fitness
B. subtilis 168 [2], first compound 0.0098 µg/mL, partner 0.625 µg/mL | 0.908
B. subtilis 168 [2], first compound 0.0098 µg/mL, partner 1.25 µg/mL | 0.872
B. subtilis 168 [2], first compound 0.0195 µg/mL, partner 0.625 µg/mL | 0.702
B. subtilis 168 [2], first compound 0.0195 µg/mL, partner 1.25 µg/mL | 0.628
B. subtilis 168 [2], first compound 0.039 µg/mL, partner 0.625 µg/mL | 0.186
B. subtilis 168 [2], first compound 0.039 µg/mL, partner 1.25 µg/mL | 0.131
B. subtilis 168 [2], first compound 0.039 µg/mL, partner 2.5 µg/mL | 0.037
S. aureus Newman [1], first compound 0.0375 µg/mL, partner 0.625 µg/mL | 0.634
S. aureus Newman [1], first compound 0.0375 µg/mL, partner 1.25 µg/mL | 0.667
S. aureus Newman [1], first compound 0.0375 µg/mL, partner 2.5 µg/mL | 0.658
S. aureus Newman [1], first compound 0.075 µg/mL, partner 0.625 µg/mL | 0.689
S. aureus Newman [1], first compound 0.075 µg/mL, partner 1.25 µg/mL | 0.698
S. aureus Newman [1], first compound 0.075 µg/mL, partner 2.5 µg/mL | 0.642
S. aureus Newman [1], first compound 0.15 µg/mL, partner 1.25 µg/mL | 0.203
S. aureus Newman [1], first compound 0.15 µg/mL, partner 2.5 µg/mL | 0.15
S. pneumoniae D39V [3], first compound 0.125 µg/mL, partner 0.25 µg/mL | 0.899
S. pneumoniae D39V [3], first compound 0.125 µg/mL, partner 0.5 µg/mL | 0.914
S. pneumoniae D39V [3], first compound 0.125 µg/mL, partner 1 µg/mL | 0.821
S. pneumoniae D39V [3], first compound 0.25 µg/mL, partner 0.25 µg/mL | 0.745
S. pneumoniae D39V [3], first compound 0.25 µg/mL, partner 0.5 µg/mL | 0.774
S. pneumoniae D39V [3], first compound 0.25 µg/mL, partner 1 µg/mL | 0.694

Conditions | Bliss interaction score
B. subtilis 168 [5] | -0.0827
S. aureus DSM 20231 | 0.154
S. aureus Newman [4] | 0.193
S. pneumoniae D39V [6] | -0.0454
